These results are taken from ChEMBL document CHEMBL4828727, “Antibacterial and antitumoral properties of 1,2,3-triazolo fused triterpenes and their mechanism of inhibiting the proliferation of HL-60 cells” (Eur J Med Chem, 2021).

In brackets after ≈: the same amount, converted by molar mass. Activity calls are given as the source filed them. The rule behind the calls is not given here. Bounds are passed on as bounds.

Test [1] concerns CAPAN-1. As to the kind of experiment: cells. The format is functional, cell-based. The note with it: Homo sapiens, CAPAN-1, 72 h.
Description: Antiproliferative activity against human CAPAN-1 cells assessed as inhibition of cell viability measured after 72 hrs by colorimetric MTS viability assay
A short description of test [2]: Antiproliferative activity against human HAP1 cells assessed as inhibition of cell viability measured after 72 hrs by colorimetric MTS viability assay. The class given is functional, cell-based. The note with it: HAP1, 72 h.
Test [3] relates to LN-229. Briefly: Antiproliferative activity against human LN-229 cells assessed as inhibition of cell viability measured after 72 hrs by colorimetric MTS viability assay. The class given is functional, cell-based. The note with it: LN-229, 72 h. On the technique in general: Formazan colour is commonly taken as a measure of viable cells.
Test [4] relates to HCT-116. As to the kind of experiment: Antiproliferative activity against human HCT-116 cells assessed as inhibition of cell viability measured after 72 hrs by colorimetric MTS viability assay. The class given is functional, cell-based. The note with it: HCT-116, 72 h.
Test [5] deals with NCI-H460. As to the kind of experiment: cells. The format is functional, cell-based. The note with it: Homo sapiens, NCI-H460, 72 h.
Description: Antiproliferative activity against human NCI-H460 cells assessed as inhibition of cell viability measured after 72 hrs by colorimetric MTS viability assay
Test [6] in a line: Antiproliferative activity against human DND41 cells assessed as inhibition of cell viability measured after 72 hrs by real-time IncuCyte proliferation analysis. The format is functional, cell-based. The note with it: DND41, 72 h.
Test [7] relates to HL-60. Briefly: cells. The class given is functional, cell-based. Conditions: Homo sapiens, HL-60, 72 h.
Description: Antiproliferative activity against human HL-60 cells assessed as inhibition of cell viability measured after 72 hrs by real-time IncuCyte proliferation analysis
The test system of test [8] is K562. As to the kind of experiment: cells. The format is functional, cell-based. The note with it: Homo sapiens, K562, 72 h.
Description: Antiproliferative activity against human K562 cells assessed as inhibition of cell viability measured after 72 hrs by real-time IncuCyte proliferation analysis
Test [9] concerns Z-138. As to the kind of experiment: cells. Conditions: Homo sapiens, Z-138, 72 h. The class given is functional, cell-based.
Description: Antiproliferative activity against human Z138 cells assessed as inhibition of cell viability measured after 72 hrs by real-time IncuCyte proliferation analysis
Test [10] has as its system Staphylococcus aureus. Briefly: Antibacterial activity against Staphylococcus aureus ATCC65385 assessed as growth inhibition after 20 hrs by broth microdilution method. The class given is functional. (Dilution methods test growth across graded concentrations, often in twofold steps.)
Test [11] relates to Escherichia coli. As to the kind of experiment: Antibacterial activity against Escherichia coli ATCC47076 assessed as growth inhibition after 20 hrs by broth microdilution method. The class given is functional.
Test [12] has as its system Salmonella enterica subsp. enterica. Briefly: Antibacterial activity against Salmonella enterica subsp.enterica ATCC13076 assessed as growth inhibition after 20 hrs by broth microdilution method. The format is functional.
In test [13] the test system is Listeria innocua. As to the kind of experiment: Antibacterial activity against Listeria innocua LMG11387 assessed as growth inhibition after 20 hrs by broth microdilution method. The class given is functional.
Test [14] concerns Jurkat. As to the kind of experiment: cells. The format is functional, cell-based. The note with it: Homo sapiens, 72 h.
Description: Cytotoxicity against human Jurkat cells assessed as inhibition of cell viability measured after 72 hrs by real-time IncuCyte proliferation analysis
In test [15] the test system is MV4-11. As to the kind of experiment: cells. The format is functional, cell-based. Conditions: Homo sapiens, MV4-11, 72 h.
Description: Cytotoxicity against human MV4-11cells assessed as inhibition of cell viability measured after 72 hrs by real-time IncuCyte proliferation analysis
In test [16] the test system is Rec1. Briefly: cells. The format is functional, cell-based. The note with it: Homo sapiens, Rec1, 72 h.
Description: Cytotoxicity against human REC1 cells assessed as inhibition of cell viability measured after 72 hrs by real-time IncuCyte proliferation analysis

What is called IC50 is the midpoint of a concentration-inhibition curve. One may read the MIC50 as the lowest concentration that inhibits either 50% of growth or 50% of the strains tested, depending on the study. In the case of `C=C(C)[C@@H]1CC[C@]2(CO)CC[C@]3(C)[C@H](CC[C@@H]4[C@@]5(C)Cc6nnn(Cc7ccc8cc[nH]c8c7)c6C(C)(C)[C@@H]5CC[C@]43C)[C@@H]12`, the IC50 in test [1], in test [2], in [3], in [4], in test [5] and in [6] was > 100 µM each time. The IC50 in [7], in test [8] and in [9] was > 100 µM each time. Moreover, the MIC50 in [10] was found to be 233 µg/mL (≈ 392 µM); in [11] it was 84.7 µg/mL (≈ 142 µM); in test [12] it was 43 µg/mL (≈ 72.3 µM); in test [13], 195 µg/mL (≈ 328 µM).

On to `O=C(O)c1cn(C2CC2)c2cc(N3CCNCC3)c(F)cc2c1=O` [CIPROFLOXACIN], for which the MIC50 in [10] came out at 3.41 µg/mL (≈ 10.3 µM); in test [12], 0.37 µg/mL (≈ 1.12 µM); in test [13], 138 µg/mL (≈ 416 µM).

Take `CC1(C)CC[C@]2(C(=O)O)CC[C@]3(C)C(=CC[C@@H]4[C@@]5(C)Cc6nnn(Cc7cccc8[nH]ccc78)c6C(C)(C)[C@@H]5CC[C@]43C)[C@@H]2C1`: the half-inhibitory concentration (IC50) in test [1] turned out to be 6.7 µM; in test [2], 9.7 µM; in test [3], 47.2 µM; in test [4] it was 12.6 µM; in [5], 10.6 µM; in test [6] it was 11 µM. Also, the IC50 is 9.7 µM in test [7]; 68.2 µM in [8]; 9.9 µM in test [9]; 5.3 µM in test [14]; 22.1 µM in test [15]; 2.6 µM in [16]. Moreover, the MIC50 in [10] amounted to 180 µg/mL (≈ 296 µM); in [11] it was 95.8 µg/mL (≈ 157 µM); in test [12] it was 88.7 µg/mL (≈ 146 µM); in [13] it was 237 µg/mL (≈ 390 µM).

As to `C=C(C)[C@@H]1CC[C@]2(CO)CC[C@]3(C)[C@H](CC[C@@H]4[C@@]5(C)Cc6nnn(Cc7ccc(F)cc7)c6C(C)(C)[C@@H]5CC[C@]43C)[C@@H]12`, the IC50 in test [1] is > 100 µM; in test [2], 10.3 µM; in [3] it was > 100 µM; in [4], > 100 µM; in test [5], > 100 µM; in test [6], > 100 µM. Besides, the IC50 in test [7], in test [8] and in test [9] was > 100 µM throughout. In addition, the MIC50 entry in test [10] and in [13] was “inactive” each time. For the same molecule, the MIC50 in [11] stood at 56.7 µg/mL (≈ 98.8 µM); in test [12] it was 48.1 µg/mL (≈ 83.8 µM).

With `C=C(C)[C@@H]1CC[C@]2(CO)CC[C@]3(C)[C@H](CC[C@@H]4[C@@]5(C)Cc6nnn(Cc7cccc8[nH]ccc78)c6C(C)(C)[C@@H]5CC[C@]43C)[C@@H]12`, the IC50 in [1], in [2], in [3], in test [4], in test [5] and in test [6] was > 100 µM each time. Moreover, the 50% inhibitory concentration (IC50) in test [7], in [8] and in test [9] was > 100 µM each time. In addition, the MIC50 entry in test [10] is “inactive”. Also, the values for the MIC50 in [11], in test [12] and in test [13] were 99.8 µg/mL (≈ 168 µM), 55.5 µg/mL (≈ 93.3 µM) and 379 µg/mL (≈ 636 µM), respectively.

Turning to `CN[C@@H]1C[C@H]2O[C@@](C)([C@@H]1OC)n1c3ccccc3c3c4c(c5c6ccccc6n2c5c31)C(=O)NC4` [STAUROSPORINE], the IC50 is 0.0491 µM in test [2], 0.0097 µM in test [3], 0.0481 µM in [4] and 0.0308 µM in [6].

As to `C[C@H]1[C@H](C)CC[C@]2(C(=O)O)CC[C@]3(C)C(=CC[C@@H]4[C@@]5(C)CC[C@H](O)C(C)(C)[C@@H]5CC[C@]43C)[C@H]12` [URSOLIC ACID], the IC50 was 8.6 µM in test [1]; 71.1 µM in test [2]; 47.4 µM in test [3]; 17.7 µM in test [4]; 16.2 µM in [5]; 13.7 µM in test [6]. Moreover, the IC50 in test [7] is 9.5 µM; in [8] it was 10.2 µM; in [9] it was 9.8 µM. The MIC50 in test [10] was 1.56 µg/mL (≈ 3.42 µM); in test [13] it was 27 µg/mL (≈ 59.2 µM). The MIC50 result in [11] and in test [12] was “inactive” in each case.

`C=C(C)[C@@H]1CC[C@]2(CO)CC[C@]3(C)[C@H](CC[C@@H]4[C@@]5(C)Cc6nnn(Cc7ccc8[nH]ccc8c7)c6C(C)(C)[C@@H]5CC[C@]43C)[C@@H]12`: the IC50 in [1], in test [2], in [3], in [4], in test [5] and in test [6] was > 100 µM throughout. Further, the IC50 in [7], in [8] and in test [9] was > 100 µM throughout. Besides, the MIC50 worked out at 345 µg/mL (≈ 580 µM) in test [10], 96.3 µg/mL (≈ 162 µM) in test [11], 62 µg/mL (≈ 104 µM) in test [12] and 187 µg/mL (≈ 315 µM) in [13].

On to `C=C(C)[C@@H]1CC[C@]2(CO)CC[C@]3(C)[C@H](CC[C@@H]4[C@@]5(C)Cc6nnn(CCc7c[nH]c8ccc(OC)cc78)c6C(C)(C)[C@@H]5CC[C@]43C)[C@@H]12`, for which the IC50 in test [1], in [2], in [3], in test [4], in [5] and in test [6] was > 100 µM in each case. The IC50 in test [7], in test [8] and in test [9] was > 100 µM throughout. Besides, the MIC50 result in test [10] is “inactive”. The MIC50 in test [11] stood at 17.7 µg/mL (≈ 27.7 µM); in test [12], 17.3 µg/mL (≈ 27 µM); in [13], 429 µg/mL (≈ 672 µM).

Consider `CC1(C)CC[C@]2(C(=O)O)CC[C@]3(C)C(=CC[C@@H]4[C@@]5(C)CC[C@H](O)C(C)(C)[C@@H]5CC[C@]43C)[C@@H]2C1` [OLEANOLIC_ACID], for which the IC50 in test [1] was 50.1 µM; in test [2], > 100 µM; in [3], > 100 µM; in test [4], 32.4 µM; in test [5], > 100 µM; in [6], 65.5 µM. Moreover, the IC50 in test [7] was 36.4 µM; in test [8], > 100 µM; in [9], > 100 µM. Also, the MIC50 stood at 1.16 µg/mL (≈ 2.54 µM) in test [10], 392 µg/mL (≈ 859 µM) in test [11] and 21.4 µg/mL (≈ 46.7 µM) in [13]. Besides, in [12], the MIC50 result is “inactive”.

With `C=C(C)[C@@H]1CC[C@]2(CO)CC[C@]3(C)[C@H](CC[C@@H]4[C@@]5(C)Cc6nnn(Cc7ccc(OC)cc7)c6C(C)(C)[C@@H]5CC[C@]43C)[C@@H]12`, the IC50 in test [1], in test [2], in [3], in [4], in test [5] and in test [6] was > 100 µM in each case. Also, the IC50 in test [7], in test [8] and in test [9] was > 100 µM throughout. Also, the MIC50 entry in test [10] and in [13] was “inactive” in each case. Besides, the values for the MIC50 in [11] and in [12] were 70.6 µg/mL (≈ 121 µM) and 32.3 µg/mL (≈ 55.1 µM), respectively.

With `C=C(C)[C@@H]1CC[C@]2(CO)CC[C@]3(C)[C@H](CC[C@@H]4[C@@]5(C)CC[C@H](O)C(C)(C)[C@@H]5CC[C@]43C)[C@@H]12` [BETULIN], the half-maximal inhibitory concentration (IC50) in [1], in test [2], in test [3], in [4], in [5] and in [6] was > 100 µM throughout. Further, the IC50 in test [7], in test [8] and in test [9] was > 100 µM in each case. The MIC50 turned out to be 248 µg/mL (≈ 559 µM) in [10] and 398 µg/mL (≈ 899 µM) in [13]. Further, the MIC50 entry in test [11] and in test [12] was “inactive” in each case.

For the molecule `CC1(C)CC[C@]2(C(=O)O)CC[C@]3(C)C(=CC[C@@H]4[C@@]5(C)Cc6nnn(Cc7ccc(Cl)cc7)c6C(C)(C)[C@@H]5CC[C@]43C)[C@@H]2C1`, the IC50 is 25.8 µM in test [1]; > 100 µM in [2]; 67.1 µM in test [3]; 63.8 µM in [4]; > 100 µM in [5]; 64.3 µM in test [6]. For the same molecule, the IC50 in test [7] was 56 µM; in test [8], > 100 µM; in test [9], 61.5 µM. Further, the MIC50 came out at 180 µg/mL (≈ 298 µM) in test [10], 34.3 µg/mL (≈ 56.7 µM) in test [11], 25.2 µg/mL (≈ 41.8 µM) in [12] and 367 µg/mL (≈ 608 µM) in test [13].

For `C=C(C)[C@@H]1CC[C@]2(CO)CC[C@]3(C)[C@H](CC[C@@H]4[C@@]5(C)Cc6nnn(CCc7c[nH]c8ccccc78)c6C(C)(C)[C@@H]5CC[C@]43C)[C@@H]12`, the IC50 in test [1], in test [2], in [3], in test [4], in [5] and in test [6] was > 100 µM throughout. Moreover, the IC50 in test [7], in [8] and in [9] was > 100 µM in each case. Besides, the MIC50 result in [10] and in test [13] was “inactive” in each case. Besides, the MIC50 in [11] is > 20.9 µg/mL; in test [12], 16.6 µg/mL (≈ 27.3 µM).
